Test results published in the NIST ThermoML archive (doi:10.1016/j.tca.2013.06.031).

How the values were obtained:
[1] = mn = molality of the nth substance listed, in mol/kg; settings: 101 kPa, Liquid, m2 = 0; for viscosity: Capillary tube (Ostwald / Ubbelohde) method; for mass density: Vibrating tube method
[2] = wn = mass fraction of the nth substance listed; settings: 101 kPa, Liquid, w1 = 0.009; for viscosity: Capillary tube (Ostwald / Ubbelohde) method; for mass density: Vibrating tube method
[3] = 101 kPa, Liquid, Capillary tube (Ostwald / Ubbelohde) method

O [water] + CO/N=C(\C(=O)N[C@@H]1C(=O)N2C(C(=O)[O-])=C(CSc3nc(C)c(CC(=O)[O-])s3)CS[C@H]12)c1csc(N)n1.[Na+].[Na+]
[1]
Settings | mass density [kg/m3] | viscosity [mPa·s]
278.15 K | 999.96 | 1.521
283.15 K | 999.7 | 1.307
288.15 K | – | 1.135
293.15 K | – | 1.002
298.15 K | – | 0.8903
303.15 K | – | 0.7977
308.15 K | – | 0.719
313.15 K | – | 0.6532

[Cl-].[Na+] [sodium chloride] + O
[2]
Settings | mass density [kg/m3] | viscosity [mPa·s]
278.15 K | 1006.09 | 1.53
283.15 K | 1005.64 | 1.321
288.15 K | 1005.07 | 1.154
293.15 K | 1004.14 | 1.015
298.15 K | 1002.96 | 0.9068
303.15 K | 1001.47 | 0.8105
308.15 K | 999.75 | 0.7363
313.15 K | 997.82 | 0.6641

O [water]
[3]
Settings | viscosity [mPa·s]
278.15 K | 1.521
283.15 K | 1.307
288.15 K | 1.135
293.15 K | 1.002
298.15 K | 0.8903
303.15 K | 0.7977
308.15 K | 0.719
313.15 K | 0.6532
